Assay results: ChEMBL document CHEMBL4196004, “Discovery of novel mifepristone derivatives via suppressing KLF5 expression for the treatment of triple-negative breast cancer” (Eur J Med Chem, 2018)
Activity calls are given as the source filed them. The calls are words filed in the database; no cut-off is given here.

Columns and labels:
[1] = system: HCC1937; assay: Antiproliferative activity against human HCC1937 cells after 48 hrs by SRB assay; assay type: functional, cell-based; conditions: HCC1937, 48 h
[2] = system: SUM149PT; assay: Antiproliferative activity against human SUM149PT cells after 48 hrs by SRB assay; assay type: functional, cell-based
[3] = system: Mus musculus; assay: Acute toxicity in KM mouse assessed as loss of body weight at 400 mg/kg, po administered as single dose and measured every 3 days; assay type: organism-based; conditions: in vivo, 72 h
[4] = system: HCC1937; assay: Inhibition of KLF5 expression levels in human HCC1937 cells after 24 hrs by Western blot analysis; assay type: functional, cell-based
[5] = system: SUM149PT; assay: Cell cycle arrest in human SUM149PT cells assessed as decrease in cells at S phase at 5 to 10 uM after 24 hrs by propidium iodide staining-based flow cytometric analysis; assay type: functional
[6] = Cmax in Sprague-Dawley rat at 30 mg/kg administered via oral gavage by HPLC analysis; assay type: ADME, organism-based; set-up: dose 30 mg/kg, route oral; conditions: in vivo
[7] = system: Mus musculus; assay: Toxicity in Balb/C nude mouse implanted with human UM1 cells assessed as loss of body weight at 1 mg, ip qd for 4 weeks; assay type: organism-based; conditions: in vivo, 672 h
[8] = system: Rattus norvegicus; assay: AUC (0 to t) in Sprague-Dawley rat at 30 mg/kg administered via oral gavage by HPLC analysis; assay type: ADME, organism-based; conditions: in vivo
[9] = system: SUM149PT; assay: Induction of PARP cleavage in human SUM149PT cells after 24 hrs by Western blot analysis; assay type: functional, cell-based
[10] = system: SUM149PT; assay: Cell cycle arrest in human SUM149PT cells assessed as increase in cells at G1 phase after 24 hrs by propidium iodide staining-based flow cytometric analysis; assay type: functional
[11] = system: Homo sapiens; assay: Antitumor activity against human UM1 cells implanted in Balb/C nude mouse at 1 mg, ip qd for 4 weeks; assay type: functional, organism-based
[12] = system: Mus musculus; assay: Acute toxicity in KM mouse assessed as behaviour change at 400 mg/kg, po administered as single dose; assay type: organism-based; conditions: in vivo
[13] = Tmax in Sprague-Dawley rat at 30 mg/kg administered via oral gavage by HPLC analysis; assay type: ADME, organism-based; conditions: in vivo
[14] = Elimination half life in Sprague-Dawley rat at 30 mg/kg administered via oral gavage by HPLC analysis; assay type: ADME, organism-based; conditions: in vivo, read-out: beta t1/2 (converted)
[15] = system: HCC1937; assay: Induction of PARP cleavage in human HCC1937 cells after 24 hrs by Western blot analysis; assay type: functional, cell-based
[16] = system: SUM149PT; assay: Inhibition of KLF5 expression levels in human SUM149PT cells after 24 hrs by Western blot analysis; assay type: functional, cell-based
[17] = system: Rattus norvegicus; assay: AUC (0 to infinity) in Sprague-Dawley rat at 30 mg/kg administered via oral gavage by HPLC analysis; assay type: ADME, organism-based; set-up: dose 30 mg/kg, route oral, time infinity; conditions: in vivo
[18] = system: SUM149PT; assay: Cell cycle arrest in human SUM149PT cells assessed as decrease in cells at S phase at 20 uM after 24 hrs by propidium iodide staining-based flow cytometric analysis; assay type: functional
[19] = system: SUM149PT; assay: Cell cycle arrest in human SUM149PT cells assessed as increase in cells at G1 phase at 20 uM after 24 hrs by propidium iodide staining-based flow cytometric analysis; assay type: functional

## CC#C[C@]1(O)CC[C@H]2[C@@H]3CCC4=CC(=O)CCC4=C3[C@@H](c3ccc(N(C)C(=O)Cc4ccccc4)cc3)C[C@@]21C
[1]
  IC50: 9 µM
[2]
  IC50: 7 µM

## CC#C[C@]1(O)CC[C@H]2[C@@H]3CCC4=CC(=O)CCC4=C3[C@@H](c3ccc(N(C)C(=O)c4ccc(F)c(Cl)c4)cc3)C[C@@]21C
[2]
  IC50: 9 µM

## CC#C[C@]1(O)CC[C@H]2[C@@H]3CCC4=CC(=O)CCC4=C3[C@@H](c3ccc(N(C)C(=O)c4ccccc4Cl)cc3)C[C@@]21C
[1]
  IC50: 17.4 µM
[2]
  IC50: > 20 µM

## CC#C[C@]1(O)CC[C@H]2[C@@H]3CCC4=CC(=O)CCC4=C3[C@@H](c3ccc(N(C)C(=O)c4cccc(Cl)c4)cc3)C[C@@]21C
[1]
  IC50: 10.6 µM
[2]
  IC50: 14.3 µM

## CC#C[C@]1(O)CC[C@H]2[C@@H]3CCC4=CC(=O)CCC4=C3[C@@H](c3ccc(N(C)C(=O)c4ccc(OC)cc4)cc3)C[C@@]21C
[2]
  IC50: 12 µM

## CC#C[C@]1(O)CC[C@H]2[C@@H]3CCC4=CC(=O)CCC4=C3[C@@H](c3ccc(N(C)C(=O)c4ccc(Cl)cc4)cc3)C[C@@]21C
[1]
  IC50: 9.7 µM
[2]
  IC50: 16.2 µM

## CC#C[C@]1(O)CC[C@H]2[C@@H]3CCC4=CC(=O)CCC4=C3[C@@H](c3ccc(N(C)C(=O)c4ccc(Cl)c(C(F)(F)F)c4)cc3)C[C@@]21C
[2]
  IC50: > 20 µM

## CC#C[C@]1(O)CC[C@H]2[C@@H]3CCC4=CC(=O)CCC4=C3[C@@H](c3ccc(N(C)C(=O)c4cc(Cl)ccc4F)cc3)C[C@@]21C
[2]
  IC50: > 20 µM

## CC#C[C@]1(O)CC[C@H]2[C@@H]3CCC4=CC(=O)CCC4=C3[C@@H](c3ccc(N(C)C(=O)c4nccs4)cc3)C[C@@]21C
[2]
  IC50: > 20 µM

## CC#C[C@]1(O)CC[C@H]2[C@@H]3CCC4=CC(=O)CCC4=C3[C@@H](c3ccc(N(C)C(=O)c4ccccc4OC)cc3)C[C@@]21C
[2]
  IC50: > 20 µM

## CC#C[C@]1(O)CC[C@H]2[C@@H]3CCC4=CC(=O)CCC4=C3[C@@H](c3ccc(N(C)S(=O)(=O)c4ccc(C)cc4)cc3)C[C@@]21C
[1]
  IC50: > 20 µM
[2]
  IC50: > 20 µM

## CC#C[C@]1(O)CC[C@H]2[C@@H]3CCC4=CC(=O)CCC4=C3[C@@H](c3ccc(N(C)C(=O)c4ccc(Cl)c(Cl)c4)cc3)C[C@@]21C
[3]
  Activity: Non-Toxic
[4]
  inhibition: Dose-dependent effect
[5]
  Activity: Active
[1]
  IC50: 7.9 µM
[6]
  Cmax: 550 ng/mL
[7]
  Activity: Non-Toxic
[8]
  AUCt: 2.45 mg/L/h
[9]
  Activity: Dose-dependent effect
[10]
  Activity: Dose-dependent effect
[11]
  Activity: Active
[12]
  Activity: Non-Toxic
[2]
  IC50: 3.6 µM
[13]
  Tmax: 2.17 h
[14]
  half-life: 2.88 h
[15]
  Activity: Dose-dependent effect
[16]
  inhibition: Dose-dependent effect
[17]
  AUC: 2910 ng·h/mL

## CC#C[C@]1(O)CC[C@H]2[C@@H]3CCC4=CC(=O)CCC4=C3[C@@H](c3ccc(N(C)C(=O)c4ccc(OC)c(Cl)c4)cc3)C[C@@]21C
[2]
  IC50: > 20 µM

## CC#C[C@]1(O)CC[C@H]2[C@@H]3CCC4=CC(=O)CCC4=C3[C@@H](c3ccc(NC)cc3)C[C@@]21C [DESMETHYLMIFEPRISTONE]
[1]
  IC50: > 20 µM
[2]
  IC50: > 20 µM

## CC#C[C@]1(O)CC[C@H]2[C@@H]3CCC4=CC(=O)CCC4=C3[C@@H](c3ccc(N(C)C(C)=O)cc3)C[C@@]21C
[1]
  IC50: > 20 µM
[2]
  IC50: > 20 µM

## CC#C[C@]1(O)CC[C@H]2[C@@H]3CCC4=CC(=O)CCC4=C3[C@@H](c3ccc(N(C)C(=O)c4cc(Cl)cc(Cl)c4)cc3)C[C@@]21C
[2]
  IC50: 9 µM

## CC#C[C@]1(O)CC[C@H]2[C@@H]3CCC4=CC(=O)CCC4=C3[C@@H](c3ccc(N(C)C(=O)c4cccc(C)c4)cc3)C[C@@]21C
[1]
  IC50: 9 µM
[2]
  IC50: 5 µM

## CC#C[C@]1(O)CC[C@H]2[C@@H]3CCC4=CC(=O)CCC4=C3[C@@H](c3ccc(N(C)C(=O)c4cccc(OC)c4)cc3)C[C@@]21C
[2]
  IC50: 18 µM

## CC#C[C@]1(O)CC[C@H]2[C@@H]3CCC4=CC(=O)CCC4=C3[C@@H](c3ccc(N(C)C(=O)c4ccc(Cl)c(F)c4)cc3)C[C@@]21C
[2]
  IC50: > 20 µM

## CC#C[C@]1(O)CC[C@H]2[C@@H]3CCC4=CC(=O)CCC4=C3[C@@H](c3ccc(N(C)C(=O)c4ccc(C(C)(C)C)cc4)cc3)C[C@@]21C
[1]
  IC50: 4.2 µM
[2]
  IC50: 3.5 µM

## CC#C[C@]1(O)CC[C@H]2[C@@H]3CCC4=CC(=O)CCC4=C3[C@@H](c3ccc(N(C)C(=O)c4ccccn4)cc3)C[C@@]21C
[1]
  IC50: > 20 µM
[2]
  IC50: > 20 µM

## CC#C[C@]1(O)CC[C@H]2[C@@H]3CCC4=CC(=O)CCC4=C3[C@@H](c3ccc(N(C)C(=O)c4ccc(C)cc4)cc3)C[C@@]21C
[1]
  IC50: 9.1 µM
[2]
  IC50: 5 µM

## CC#C[C@]1(O)CC[C@H]2[C@@H]3CCC4=CC(=O)CCC4=C3[C@@H](c3ccc(N(C)C(=O)c4ccc5ccccc5c4)cc3)C[C@@]21C
[1]
  IC50: 6.1 µM
[2]
  IC50: 5 µM

## CC#C[C@]1(O)CC[C@H]2[C@@H]3CCC4=CC(=O)CCC4=C3[C@@H](c3ccc(N(C)C(=O)c4ccccc4)cc3)C[C@@]21C
[1]
  IC50: 14.7 µM
[2]
  IC50: 10.5 µM

## CC#C[C@]1(O)CC[C@H]2[C@@H]3CCC4=CC(=O)CCC4=C3[C@@H](c3ccc(N(C)C(=O)c4ccc(C)c(C)c4)cc3)C[C@@]21C
[1]
  IC50: 6.1 µM
[2]
  IC50: 5.6 µM

## CC#C[C@]1(O)CC[C@H]2[C@@H]3CCC4=CC(=O)CCC4=C3[C@@H](c3ccc(N(C)C(=O)c4ccc(C(C)C)cc4)cc3)C[C@@]21C
[1]
  IC50: 4.2 µM
[2]
  IC50: 4.2 µM

## COc1cccc2c1C(=O)c1c(O)c3c(c(O)c1C2=O)C[C@@](O)(C(=O)CO)C[C@@H]3O[C@H]1C[C@H](N)[C@H](O)[C@H](C)O1 [DOXORUBICIN]
[1]
  IC50: 0.44 µM
[2]
  IC50: 0.36 µM

## CC#C[C@]1(O)CC[C@H]2[C@@H]3CCC4=CC(=O)CCC4=C3[C@@H](c3ccc(N(C)C(=O)c4cccs4)cc3)C[C@@]21C
[2]
  IC50: 12.5 µM

## CC#C[C@]1(O)CC[C@H]2[C@@H]3CCC4=CC(=O)CCC4=C3[C@@H](c3ccc(N(C)C)cc3)C[C@@]21C [MIFEPRISTONE]
[4]
  inhibition: Dose-dependent effect
[1]
  IC50: > 20 µM
[6]
  Cmax: 360 ng/mL
[7]
  Activity: Non-Toxic
[18]
  Activity: Active
[8]
  AUCt: 1.97 mg/L/h
[9]
  Activity: Dose-dependent effect
[11]
  Activity: Active
[19]
  Activity: inactive
[2]
  IC50: 15 µM
[13]
  Tmax: 3.38 h
[14]
  half-life: 3.02 h
[15]
  Activity: Dose-dependent effect
[16]
  inhibition: Dose-dependent effect
[17]
  AUC: 2420 ng·h/mL

## CC#C[C@]1(O)CC[C@H]2[C@@H]3CCC4=CC(=O)CCC4=C3[C@@H](c3ccc(N(C)C(=O)c4ccncc4)cc3)C[C@@]21C
[1]
  IC50: > 20 µM
[2]
  IC50: > 20 µM

## CC#C[C@]1(O)CC[C@H]2[C@@H]3CCC4=CC(=O)CCC4=C3[C@@H](c3ccc(N(C)C(=O)c4cnccn4)cc3)C[C@@]21C
[2]
  IC50: > 20 µM

## CC#C[C@]1(O)CC[C@H]2[C@@H]3CCC4=CC(=O)CCC4=C3[C@@H](c3ccc(N(C)C(=O)c4cncs4)cc3)C[C@@]21C
[2]
  IC50: > 20 µM

## CC#C[C@]1(O)CC[C@H]2[C@@H]3CCC4=CC(=O)CCC4=C3[C@@H](c3ccc(N(C)C(=O)c4ccc(C)c(Cl)c4)cc3)C[C@@]21C
[2]
  IC50: 4.7 µM

## CC#C[C@]1(O)CC[C@H]2[C@@H]3CCC4=CC(=O)CCC4=C3[C@@H](c3ccc(N(C)S(=O)(=O)c4ccccc4)cc3)C[C@@]21C
[1]
  IC50: > 20 µM
[2]
  IC50: > 20 µM

## CC#C[C@]1(O)CC[C@H]2[C@@H]3CCC4=CC(=O)CCC4=C3[C@@H](c3ccc(N(C)C(=O)c4ccc(-c5ccccc5)cc4)cc3)C[C@@]21C
[1]
  IC50: > 20 µM
[2]
  IC50: 16 µM
